# How the values were obtained:
# His-AKT (Full Length) = target: T1, His-AKT (Full Length) (Homo sapiens, UniProt P31749); test: AKT enzyme assay; assay type: biochemical; settings: enzyme inhibition; 160 uM ATP, 90 min at 25° C., Caliper mobility shift
# T1 construct: 0.1 ng/μl His-AKT (Full Length); His; purchased Invitrogen P2999
# Protocol: (§1) The IC50 values reported for the compounds in the Experimental section were derived from the following protocol for the p70S6K and AKT enzyme assays.
# A TTP Mosquito liquid handling instrument was used to place 125 nl of the appropriate concentration of inhibitor in 100% DMSO (for a dose response curve calculation) into each well of a 384-well plate. To this reaction components were added to a final volume of 12.5 μl: • 0.1 ng/μl His-AKT (Full Length), (Invitrogen, Part # P2999, Lot # 641228C). • 160 uM ATP (Fluke, 02055) • 1 mM DTT (Sigma, D0632) • 1 mM MgCl2 (Sigma, M1028) • 1 μM substrate peptide (sequence FITC-AHA-GRPRTSSFAEG-NH2), synthesized by Tufts Peptide Synthesis service. • 100 mM HEPES pH 7.5 (Calbiochem, 391338) • 0.015% Brij-35 (Sigma, B4184)
# The reaction was incubated for 90 min at 25° C., and then stopped by the addition of 70 μl of Stop buffer (100 mM HEPES pH 7.5, 0.015% Brij-35, 10 mM EDTA (Sigma, E7889)).
# The plate was read on a Caliper LC 3000 in an Off-Chip mobility shift assay format, using the following parameters for a 12-sipper chip: screening pressure −2.3 psi, upstream voltage −500, and downstream voltage −3000. These conditions caused unphosphorylated substrate and phosphorylated product peptide to resolve as separate peaks allowing direct measurement of percentage of conversion of substrate to product. The percent conversion was plotted against concentration of inhibitor to produce a sigmoidal dose response curve, from which an IC50 was calculated.
# [1] = target: T2, P70S6K (T412E mutant, Millipore) (Homo sapiens, UniProt P23443, T412E); test: P70S6K enzyme assay; assay type: biochemical; settings: enzyme inhibition; 24 μM ATP, 90 min at 25° C., Caliper mobility shift
# T2 construct: purchased Millipore
# Protocol: as §1
# P70S6K inhibitor compounds were diluted and plated in 96 well plates. A reaction mixture including the following components was then added to the compound plate to initiate the enzyme reaction; P70S6K (3 nM, T412E mutant, Millipore) was mixed with 24 μM ATP in an assay buffer containing 100 mM Hepes (pH 7.5), 5 mM MgCl2, 1 mM DTT, 0.015% Brij and 1 μM of the substrate peptide FITC-AHA-AKRRRLSSLRA-OH (derived from the S6 ribosomal protein sequence, FITC=fluorescein isothiocyanate, AHA=6-aminohexanoic acid). The reaction was incubated for 90 min at 25° C., before the addition of 10 mM EDTA to stop the reaction. The proportion of substrate and product (phosphorylated) peptide was analysed on a Caliper Life Sciences Lab Chip 3000, using a pressure of −1.4 psi, and upstream and downstream voltages of −3000 and −700 respectively. Product peaks were resolved before substrate peaks on the resulting chromatograms.
# T2 sequence (P23443 whole entry T412E): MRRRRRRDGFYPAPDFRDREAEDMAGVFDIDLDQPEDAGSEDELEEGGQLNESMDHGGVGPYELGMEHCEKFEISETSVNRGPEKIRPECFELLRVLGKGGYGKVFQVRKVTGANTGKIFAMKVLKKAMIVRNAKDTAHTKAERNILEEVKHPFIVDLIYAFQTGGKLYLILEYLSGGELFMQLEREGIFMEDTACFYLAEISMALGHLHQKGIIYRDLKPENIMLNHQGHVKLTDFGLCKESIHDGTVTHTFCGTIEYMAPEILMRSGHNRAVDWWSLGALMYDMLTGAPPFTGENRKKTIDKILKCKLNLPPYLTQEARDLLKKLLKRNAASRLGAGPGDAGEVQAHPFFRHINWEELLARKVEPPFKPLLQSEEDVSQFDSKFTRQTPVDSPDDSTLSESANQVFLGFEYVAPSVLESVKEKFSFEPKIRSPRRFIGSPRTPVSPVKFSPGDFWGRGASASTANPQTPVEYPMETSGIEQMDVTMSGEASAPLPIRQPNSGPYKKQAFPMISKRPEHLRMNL
# T1 sequence (P31749 whole entry): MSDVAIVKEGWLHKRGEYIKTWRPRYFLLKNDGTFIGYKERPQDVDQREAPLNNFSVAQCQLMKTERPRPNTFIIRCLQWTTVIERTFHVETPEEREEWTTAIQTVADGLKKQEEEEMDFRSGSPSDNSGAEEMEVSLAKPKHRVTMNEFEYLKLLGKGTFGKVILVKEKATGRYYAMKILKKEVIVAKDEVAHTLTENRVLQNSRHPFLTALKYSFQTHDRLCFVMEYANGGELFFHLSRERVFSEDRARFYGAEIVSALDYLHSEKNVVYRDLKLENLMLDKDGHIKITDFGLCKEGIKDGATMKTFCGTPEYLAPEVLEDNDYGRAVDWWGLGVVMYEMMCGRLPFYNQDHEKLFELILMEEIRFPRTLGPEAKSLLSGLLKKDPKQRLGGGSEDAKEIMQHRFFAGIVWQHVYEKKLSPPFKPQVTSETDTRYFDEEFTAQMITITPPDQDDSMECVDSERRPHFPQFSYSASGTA
SMILES,IC50 (His-AKT (Full Length)),IC50 [1]
"CN(C)CCn1cc(-c2cccnc2)nc1C1CCN(c2ncnc3c2NC(=O)CN3)CC1 [Compound A48, 4-{4-[4-(Pyridin-3-yl)-1-(2-dimethylamin-1-yl-ethyl)-1H-imidazol-2-yl]-piperidin-1-yl}-7,8-dihydro-5H-pteridin-6-one]",> 1 µM,> 1 µM
"Cc1ccc(-c2cn(CCN(C)C)c(C3CCN(c4ncnc5c4NC(=O)CN5)CC3)n2)cc1 [Compound A49, 4-{4-[4-(4-MethylPhenyl)-1-(2-dimethylamin-1-yl-ethyl)-1H-imidazol-2-yl]-piperidin-1-yl}-7,8-dihydro-5H-pteridin-6-one]",> 1 µM,0.101 to 0.5 µM
"COc1cccc(-c2cn(CCN(C)C)c(C3CCN(c4ncnc5c4NC(=O)CN5)CC3)n2)c1 [Compound A51, 4-{4-[4-(3-Methoxy-phenyl)-1-(2-dimethylamin-1-yl-ethyl)-1H-imidazol-2-yl]-piperidin-1-yl}-7,8-dihydro-5H-pteridin-6-one]",0.501 to 1 µM,0.101 to 0.5 µM
"COc1ccc(-c2cn(CCN(C)C)c(C3CCN(c4ncnc5c4NC(=O)CN5)CC3)n2)cc1 [Compound A52, 4-{4-[4-(4-Methoxyl-henyl)-1-(2-dimethylamin-1-yl-ethyl)-1H-imidazol-2-yl]-piperidin-1-yl}-7,8-dihydro-5H-pteridin-6-one]",> 1 µM,> 1 µM
"CN(C)CCn1cc(-c2ccccc2)nc1C1CCN(c2ncnc3c2NC(=O)CN3)CC1 [Compound A53, 4-{4-[4-(Phenyl)-1-(2-dimethylamin-1-yl-ethyl)-1H-imidazol-2-yl]-piperidin-1-yl}-7,8-dihydro-5H-pteridin-6-one]",> 1 µM,> 1 µM
"CN(C)CCn1cc(C(F)(F)F)nc1C1CCN(c2ncnc3c2NC(=O)CN3)CC1 [Compound A55, 4-{4-[4-(4-trifouromethyl)-1-(2-dimethylamino-1-yl-ethyl)-1H-imidazol-2-yl]-piperidin-1-yl}-7,8-dihydro-5H-pteridin-6-one]",> 1 µM,> 1 µM
"Cc1ccc(-c2cn(CCN3CCCC3)c(C3CCN(c4ncnc5c4NC(=O)CN5)CC3)n2)cc1 [Compound A58, 4-{4-[4-(4-MethylPhenyl)-1-(2-pyrrolidin-1-yl-ethyl)-1H-imidazol-2-yl]-piperidin-1-yl}-7,8-dihydro-5H-pteridin-6-one]",> 1 µM,> 1 µM
"COc1ccc(-c2cn(CCN3CCCC3)c(C3CCN(c4ncnc5c4NC(=O)CN5)CC3)n2)cc1 [Compound A61, 4-{4-[4-(4-MethoxyPhenyl)-1-(2-pyrrolidin-1-yl-ethyl)-1H-imidazol-2-yl]-piperidin-1-yl}-7,8-dihydro-5H-pteridin-6-one]",0.501 to 1 µM,> 1 µM
"O=C1CNc2ncnc(N3CCC(c4nc(C(F)(F)F)cn4CCN4CCCC4)CC3)c2N1 [Compound A63, 4-{4-[trifluoromethyl-1-(2-pyrrolidin-1-yl-ethyl)-1H-imidazol-2-yl]-piperidin-1-yl}-7,8-dihydro-5H-ptericlin-6-one]",> 1 µM,> 1 µM

# Next, values leading:
IC50 (His-AKT (Full Length)),IC50 [1],SMILES
0.101 to 0.5 µM,0.101 to 0.5 µM,"CN(C)CCn1cc(-c2cccc(Cl)c2)nc1C1CCN(c2ncnc3c2NC(=O)CN3)CC1 [Compound A47, 4-{4-[4-(3-ChloroPhenyl)-1-(2-dimethylamin-1-yl-ethyl)-1H-imidazol-2-yl]-piperidin-1-yl}-7,8-dihydro-5H-pteridin-6-one]"
0.501 to 1 µM,0.101 to 0.5 µM,"CN(C)CCn1cc(-c2ccc(F)cc2)nc1C1CCN(c2ncnc3c2NC(=O)CN3)CC1 [Compound A50, 4-{4-[4-(4-FluoroPhenyl)-1-(2-dimethylamin-1-yl-ethyl)-1H-imidazol-2-yl]-piperidin-1-yl}-7,8-dihydro-5H-pteridin-6-one]"
0.101 to 0.5 µM,0.026 to 0.1 µM,"Cc1cccc(-c2cn(CCN(C)C)c(C3CCN(c4ncnc5c4NC(=O)CN5)CC3)n2)c1 [Compound A54, 4-{4-[4-(3-MethylPhenyl)-1-(2-dimethylamin-1-yl-ethyl)-1H-imidazol-2-yl]-piperidin-1-yl}-7,8-dihydro-5H-pteridin-6-one]"
< 0.025 µM,0.026 to 0.1 µM,"O=C1CNc2ncnc(N3CCC(c4nc(-c5ccc(F)c(F)c5)cn4CCN4CCCC4)CC3)c2N1 [Compound A56, 4-{4-[4-(3,4-DifluoroPhenyl)-1-(2-pyrrolidin-1-yl-ethyl)-1H-imidazol-2-yl]-piperidin-1-yl}-7,8-dihydro-5H-pteridin-6-one]"
0.026 to 0.1 µM,0.026 to 0.1 µM,"O=C1CNc2ncnc(N3CCC(c4nc(-c5cccc(Cl)c5)cn4CCN4CCCC4)CC3)c2N1 [Compound A57, 4-{4-[4-(3-ChloroPhenyl)-1-(2-pyrrolidin-1-yl-ethyl)-1H-imidazol-2-yl]-piperidin-1-yl}-7,8-dihydro-5H-pteridin-6-one]"
0.101 to 0.5 µM,0.026 to 0.1 µM,"O=C1CNc2ncnc(N3CCC(c4nc(-c5ccc(F)cc5)cn4CCN4CCCC4)CC3)c2N1 [Compound A59, 4-{4-[4-(4-FluoroPhenyl)-1-(2-pyrrolidin-1-yl-ethyl)-1H-imidazol-2-yl]-piperidin-1-yl}-7,8-dihydro-5H-pteridin-6-one]"
0.101 to 0.5 µM,0.101 to 0.5 µM,"COc1cccc(-c2cn(CCN3CCCC3)c(C3CCN(c4ncnc5c4NC(=O)CN5)CC3)n2)c1 [Compound A60, 4-{4-[4-(3-MethoxyPhenyl)-1-(2-pyrrolidin-1-yl-ethyl)-1H-imidazol-2-yl]-piperidin-1-yl}-7,8-dihydro-5H-pteridin-6-one]"
0.026 to 0.1 µM,0.026 to 0.1 µM,"Cc1cccc(-c2cn(CCN3CCCC3)c(C3CCN(c4ncnc5c4NC(=O)CN5)CC3)n2)c1 [Compound A62, 4-{4-[4-(3-MethylPhenyl)-1-(2-pyrrolidin-1-yl-ethyl)-1H-imidazol-2-yl]-piperidin-1-yl}-7,8-dihydro-5H-pteridin-6-one]"

# From patent publication US9315517B2, “Imidazol-piperidinyl derivatives as modulators of kinase activity” (Merck Patent GmbH, priority 2012, dated 2016)
